In the experiment the target is recombinant DYRK1A kinase (Homo sapiens (Human), UniProt Q13627). Put plainly: DYRK1A kinase assay (Ser/Thr 18 peptide Z-lyte FRET). The experiment is classed as biochemical. The following applies: DYRK1A kinase activity, Z-lyte Ser/Thr 18 peptide, 15 μM ATP; method text calls the value IC50; read-out: EC50 (the source's name). In outline:
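Recombinant enzyme (0.25 μg/mL final) was incubated with 15 μM ATP, 4 μM Ser/Thr 18 peptide and compound (11-point 1:3 series from 10 μM) for 1 h at room temperature, in duplicate. Development reagent was added for 1 h, and coumarin/fluorescein emission ratio gave % phosphorylation; IC50 by non-linear regression.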
Take `COc1nc(N[C@@H]2CCN(C(C)=O)C[C@@H]2F)nn2ccc(-c3cc(F)c4nc(C)n(CC(F)F)c4c3)c12` [Compound 520, 1-((3S,4R)-4-((5-(1-(2,2-Difluoroethyl)-4-fluoro-2-methyl-1H-benzo[d]imidazol-6-yl)-4-methoxypyrrolo[2,1-f][1,2,4]triazin-2-yl)amino)-3-fluoropiperidin-1-yl)ethan-1-one]: the IC50 was 3 nM.

On to `COc1nc(N[C@H]2CCN(C(C)=O)C[C@H]2F)nn2ccc(-c3cc(F)c4nc(C)n(CC(F)F)c4c3)c12` [Compound 521, 1-((3R,4S)-4-((5-(1-(2,2-Difluoroethyl)-4-fluoro-2-methyl-1H-benzo[d]imidazol-6-yl)-4-methoxypyrrolo[2,1-f][1,2,4]triazin-2-yl)amino)-3-fluoropiperidin-1-yl)ethan-1-one], for which the IC50 amounted to 2.6 nM.

For `COc1nc(N[C@@H]2CCN(CCO)CC2(F)F)nn2ccc(-c3cc(F)c4nc(C)n(CC(F)F)c4c3)c12` [Compound 525, (R)-2-(4-((5-(1-(2,2-Difluoroethyl)-4-fluoro-2-methyl-1H-benzo[d]imidazol-6-yl)-4-methoxypyrrolo[2,1-f][1,2,4]triazin-2-yl)amino)-3,3-difluoropiperidin-1-yl)ethan-1-ol], the IC50 worked out at 2.4 nM.

As to `COc1nc(N[C@@H]2CCN(C(C)=O)CC2(F)F)nn2ccc(-c3cc(F)c4nc(C)n(CC(F)F)c4c3)c12` [Compound 526, (R)-1-(4-((5-(1-(2,2-Difluoroethyl)-4-fluoro-2-methyl-1H-benzo[d]imidazol-6-yl)-4-methoxypyrrolo[2,1-f][1,2,4]triazin-2-yl)amino)-3,3-difluoropiperidin-1-yl)ethan-1-one], the IC50 is 1.6 nM.

Take `COc1nc(N[C@H]2CCN(CCO)C[C@H]2F)nn2ccc(-c3cc(F)c4nc(C)n(C(C)C)c4c3)c12` [Compound 542, 2-((3R,4S)-3-Fluoro-4-((5-(4-fluoro-1-isopropyl-2-methyl-1H-benzo[d]imidazol-6-yl)-4-methoxypyrrolo[2,1-f][1,2,4]triazin-2-yl)amino)piperidin-1-yl)ethan-1-ol]: the IC50 turned out to be 1.1 nM.

Turning to `COc1nc(N[C@H]2CCN(C(C)=O)C[C@H]2F)nn2ccc(-c3cc(F)c4nc(C)n(C(C)C)c4c3)c12` [Compound 544, 1-((3R,4S)-3-Fluoro-4-((5-(4-fluoro-1-isopropyl-2-methyl-1H-benzo[d]imidazol-6-yl)-4-methoxypyrrolo[2,1-f][1,2,4]triazin-2-yl)amino)piperidin-1-yl)ethan-1-one], the IC50 is 0.9 nM.

Turning to `COc1nc(N[C@@H]2CCN(CCO)CC2(F)F)nn2ccc(-c3cc(F)c4nc(C)n(C(C)C)c4c3)c12` [Compound 549, (R)-2-(3,3-Difluoro-4-((5-(4-fluoro-1-isopropyl-2-methyl-1H-benzo[d]imidazol-6-yl)-4-methoxypyrrolo[2,1-f][1,2,4]triazin-2-yl)amino)piperidin-1-yl)ethan-1-ol], the IC50 stood at 2.6 nM.

Regarding `COc1nc(N[C@@H]2CCN(C(C)=O)CC2(F)F)nn2ccc(-c3cc(F)c4nc(C)n(C(C)C)c4c3)c12` [Compound 550, (R)-1-(3,3-Difluoro-4-((5-(4-fluoro-1-isopropyl-2-methyl-1H-benzo[d]imidazol-6-yl)-4-methoxypyrrolo[2,1-f][1,2,4]triazin-2-yl)amino)piperidin-1-yl)ethan-1-one], the IC50 turned out to be 1.6 nM.

Turning to `COc1nc(N[C@@H]2CCN(C3COC3)CC2(F)F)nn2ccc(-c3cc(F)c4nc(C)n(C(C)C)c4c3)c12` [Compound 551, (R)—N-(3,3-Difluoro-1-(oxetan-3-yl)piperidin-4-yl)-5-(4-fluoro-1-isopropyl-2-methyl-1H-benzo[d]imidazol-6-yl)-4-methoxypyrrolo[2,1-f][1,2,4]triazin-2-amine], the IC50 came to 1.6 nM.

Regarding `COc1nc(N[C@H]2CC[C@](C)(O)CC2)nn2ccc(-c3ccn4ncnc4c3)c12` [Compound 554, (1r,4r)-4-((5-([1,2,4]Triazolo[1,5-a]pyridin-7-yl)-4-methoxypyrrolo[2,1-f][1,2,4]triazin-2-yl)amino)-1-methylcyclohexan-1-ol], the IC50 is 7.7 nM.

As for `CCO[C@H]1C[C@@H](Nc2nc(OC)c3c(-c4ccc5ncnn5c4)ccn3n2)C1` [Compound 555, 5-([1,2,4]Triazolo[1,5-a]pyridin-6-yl)-N-(cis-3-ethoxycyclobutyl)-4-methoxypyrrolo[2,1-f][1,2,4]triazin-2-amine], the IC50 was 5 nM.

`COc1nc(N[C@H]2C[C@@](C)(NC(=O)C3(C#N)CC3)C2)nn2ccc(-c3ccc4ncnn4c3)c12` [Compound 562, N-((1s,3s)-3-((5-([1,2,4]Triazolo[1,5-a]pyridin-6-yl)-4-methoxypyrrolo[2,1-f][1,2,4]triazin-2-yl)amino)-1-methylcyclobutyl)-1-cyanocyclopropane-1-carboxamide]: the IC50 worked out at 1.1 nM.

`COc1nc(N[C@H]2C[C@](C)(NC(=O)C3(C#N)CC3)C2)nn2ccc(-c3ccc4ncnn4c3)c12` [Compound 563, N-((1r,3r)-3-((5-([1,2,4]Triazolo[1,5-a]pyridin-6-yl)-4-methoxypyrrolo[2,1-f][1,2,4]triazin-2-yl)amino)-1-methylcyclobutyl)-1-cyanocyclopropane-1-carboxamide]: the IC50 stood at 1 nM.

Regarding `CC[C@]1(O)CC[C@H](Nc2nc(OC)c3c(-c4ccc5ncnn5c4)ccn3n2)CC1` [Compound 567, (1r,4r)-4-((5-([1,2,4]Triazolo[1,5-a]pyridin-6-yl)-4-methoxypyrrolo[2,1-f][1,2,4]triazin-2-yl)amino)-1-ethylcyclohexan-1-ol], the IC50 turned out to be 3.7 nM.

Regarding `COc1nc(N[C@@H]2CCNCC2(F)F)nn2ccc(-c3ccc4ncnn4c3)c12` [Compound 575, (R)-5-([1,2,4]Triazolo[1,5-a]pyridin-6-yl)-N-(3,3-difluoropiperidin-4-yl)-4-methoxypyrrolo[2,1-f][1,2,4]triazin-2-amine], the IC50 was found to be 6.9 nM.

For `COc1nc(N[C@@H]2CCN(C)CC2(F)F)nn2ccc(-c3ccc4ncnn4c3)c12` [Compound 576, (R)-5-([1,2,4]Triazolo[1,5-a]pyridin-6-yl)-N-(3,3-difluoro-1-methylpiperidin-4-yl)-4-methoxypyrrolo[2,1-f][1,2,4]triazin-2-amine], the IC50 turned out to be 7.3 nM.

Regarding `CCN1CC[C@@H](Nc2nc(OC)c3c(-c4ccc5ncnn5c4)ccn3n2)C(F)(F)C1` [Compound 577, (R)-5-([1,2,4]Triazolo[1,5-a]pyridin-6-yl)-N-(1-ethyl-3,3-difluoropiperidin-4-yl)-4-methoxypyrrolo[2,1-f][1,2,4]triazin-2-amine], the IC50 is 6.4 nM.

`COc1nc(N[C@@H]2CCN(C3COC3)CC2(F)F)nn2ccc(-c3ccc4ncnn4c3)c12` [Compound 578, (R)-5-([1,2,4]Triazolo[1,5-a]pyridin-6-yl)-N-(3,3-difluoro-1-(oxetan-3-yl)piperidin-4-yl)-4-methoxypyrrolo[2,1-f][1,2,4]triazin-2-amine]: the IC50 was found to be 8 nM.

As to `COc1nc(NC23CCC(O)(CC2)C3)nn2ccc(-c3ccc4ncnn4c3)c12` [Compound 582, 4-((5-([1,2,4]Triazolo[1,5-a]pyridin-6-yl)-4-methoxypyrrolo[2,1-f][1,2,4]triazin-2-yl)amino)bicyclo[2.2.1]heptan-1-ol], the IC50 turned out to be 40.9 nM.

As to `COc1nc(N[C@H]2C[C@](C)(NC(C)=O)C2)nn2cc(F)c(-c3ccc4ncnn4c3)c12` [Compound 585, N-((1r,3r)-3-((5-([1,2,4]Triazolo[1,5-a]pyridin-6-yl)-6-fluoro-4-methoxypyrrolo[2,1-f][1,2,4]triazin-2-yl)amino)-1-methylcyclobutyl)acetamide], the IC50 amounted to 2.2 nM.

Turning to `COc1nc(N[C@H]2CC[C@](C)(O)CC2)nn2cc(F)c(-c3ccc4ncnn4c3)c12` [Compound 589, (1r,4r)-4-((5-([1,2,4]Triazolo[1,5-a]pyridin-6-yl)-6-fluoro-4-methoxypyrrolo-[2,1-f][1,2,4]triazin-2-yl)amino)-1-methylcyclohexan-1-ol], the IC50 came to 0.9 nM.

Consider `C[C@]1(O)CC[C@H](Nc2nc(OCC(F)F)c3c(-c4ccc5ncnn5c4)ccn3n2)CC1` [Compound 616, (1r,4r)-4-((5-([1,2,4]Triazolo[1,5-a]pyridin-6-yl)-4-(2,2-difluoroethoxy)pyrrolo [2,1-f][1,2,4]triazin-2-yl)amino)-1-methylcyclohexan-1-ol], for which the IC50 turned out to be 2.9 nM.

In the case of `C[C@]1(O)CC[C@H](Nc2nc(OC3COC3)c3c(-c4ccc5ncnn5c4)ccn3n2)CC1` [Compound 621, (1r,4r)-4-((5-([1,2,4]Triazolo[1,5-a]pyridin-6-yl)-4-(oxetan-3-yloxy)pyrrolo[2,1-f][1,2,4]triazin-2-yl)amino)-1-methylcyclohexan-1-ol], the IC50 worked out at 35.4 nM.

Regarding `COc1nc(N[C@H]2CC[C@](C)(O)CC2)nn2ccc(-c3ccc4nc(C)nn4c3)c12` [Compound 622, (1r,4r)-4-((4-Methoxy-5-(2-methyl-[1,2,4]triazolo[1,5-a]pyridin-6-yl)pyrrolo[2,1-f][1,2,4]triazin-2-yl)amino)-1-methylcyclohexan-1-ol], the IC50 was 14.1 nM.

`COc1nc(NC[C@@H]2CNCCO2)nn2ccc(-c3ccc4nnn(C)c4c3)c12` [Compound 623, (S)-4-Methoxy-5-(1-methyl-1H-benzo[d][1,2,3]triazol-6-yl)-N-(morpholin-2-ylmethyl)pyrrolo[2,1-f][1,2,4]triazin-2-amine]: the IC50 was determined as 5.1 nM.

Turning to `CCO[C@H]1C[C@@H](Nc2nc(OC)c3c(-c4ccc5nnn(C)c5c4)ccn3n2)C1` [Compound 624, N-(cis-3-Ethoxycyclobutyl)-4-methoxy-5-(1-methyl-1H-benzo[d][1,2,3]triazol-6-yl)pyrrolo[2,1-f][1,2,4]triazin-2-amine], the IC50 amounted to 8.6 nM.

`COc1nc(N[C@@H]2CCN(C)CC2(F)F)nn2ccc(-c3ccc4nnn(C)c4c3)c12` [Compound 626, (R)—N-(3,3-Difluoro-1-methylpiperidin-4-yl)-4-methoxy-5-(1-methyl-1H-benzo[d][1,2,3]triazol-6-yl)pyrrolo[2,1-f][1,2,4]triazin-2-amine]: the IC50 is 2.7 nM.
